Calls of active or inactive are those of the source. The rule behind the calls is not given here.
Assays:
[1] = molecular target: T1, Sodium-dependent dopamine transporter (Homo sapiens, UniProt Q01959); experiment: Displacement of [125I]RTI55 from human recombinant DAT expressed in HEK293 cells; format: cell-based
[2] = molecular target: T2, Sodium-dependent serotonin transporter (Homo sapiens, UniProt P31645); experiment: Inhibition of [3H]5HT from human recombinant SERT expressed in HEK293 cells; format: cell-based
T2 sequence (P31645 whole entry): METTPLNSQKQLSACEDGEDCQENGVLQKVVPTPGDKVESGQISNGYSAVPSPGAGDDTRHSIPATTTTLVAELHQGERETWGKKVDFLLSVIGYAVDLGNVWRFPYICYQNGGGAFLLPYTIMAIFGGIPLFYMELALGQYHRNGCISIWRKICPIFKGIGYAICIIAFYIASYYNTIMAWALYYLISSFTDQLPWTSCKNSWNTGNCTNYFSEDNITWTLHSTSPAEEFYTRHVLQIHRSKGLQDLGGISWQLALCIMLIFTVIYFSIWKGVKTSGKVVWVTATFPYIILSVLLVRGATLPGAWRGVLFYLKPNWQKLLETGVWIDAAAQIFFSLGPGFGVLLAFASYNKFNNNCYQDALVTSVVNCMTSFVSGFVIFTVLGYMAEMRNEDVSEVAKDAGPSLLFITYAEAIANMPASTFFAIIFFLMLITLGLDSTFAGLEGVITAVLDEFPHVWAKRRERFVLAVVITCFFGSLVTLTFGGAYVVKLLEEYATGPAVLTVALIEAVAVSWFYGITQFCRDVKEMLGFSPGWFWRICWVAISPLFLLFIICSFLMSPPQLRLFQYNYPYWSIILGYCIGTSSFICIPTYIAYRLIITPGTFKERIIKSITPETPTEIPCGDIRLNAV

[3] = molecular target: T2, Sodium-dependent serotonin transporter; experiment: biochemical; format: cell-based, HEK293
[4] = molecular target: T3, Sodium-dependent noradrenaline transporter (Homo sapiens, UniProt P23975); experiment: Displacement of [125I]RTI55 from human recombinant NET expressed in HEK293 cells; format: cell-based
T3 sequence (P23975 whole entry): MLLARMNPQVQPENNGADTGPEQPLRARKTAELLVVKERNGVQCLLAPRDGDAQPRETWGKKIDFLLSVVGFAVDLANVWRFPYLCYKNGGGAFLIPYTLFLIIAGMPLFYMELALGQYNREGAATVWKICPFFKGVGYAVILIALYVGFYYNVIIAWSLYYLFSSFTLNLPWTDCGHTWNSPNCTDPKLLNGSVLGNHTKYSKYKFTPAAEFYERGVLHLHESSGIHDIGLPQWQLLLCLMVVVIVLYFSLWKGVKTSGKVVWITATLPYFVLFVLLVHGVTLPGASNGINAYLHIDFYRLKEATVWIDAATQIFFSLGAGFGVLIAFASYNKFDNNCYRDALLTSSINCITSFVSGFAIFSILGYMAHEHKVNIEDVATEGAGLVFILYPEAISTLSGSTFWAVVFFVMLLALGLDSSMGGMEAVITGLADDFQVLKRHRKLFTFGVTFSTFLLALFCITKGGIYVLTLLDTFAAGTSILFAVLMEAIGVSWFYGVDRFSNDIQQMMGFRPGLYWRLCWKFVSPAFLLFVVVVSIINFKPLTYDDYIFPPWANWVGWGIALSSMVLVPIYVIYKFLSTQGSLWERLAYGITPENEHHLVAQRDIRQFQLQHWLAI

[5] = molecular target: T1, Sodium-dependent dopamine transporter; experiment: Inhibition of [3H]DA from human recombinant DAT expressed in HEK293 cells; format: cell-based
[6] = molecular target: T3, Sodium-dependent noradrenaline transporter; experiment: Inhibition of [3H]NE from human recombinant NET expressed in HEK293 cells; format: cell-based
[7] = molecular target: T4, 3',5'-cyclic-AMP phosphodiesterase 4D (Homo sapiens, UniProt Q08499); experiment: Inhibition of PDE4D2 by rapid fluorescence based assay
T4 sequence (Q08499 whole entry): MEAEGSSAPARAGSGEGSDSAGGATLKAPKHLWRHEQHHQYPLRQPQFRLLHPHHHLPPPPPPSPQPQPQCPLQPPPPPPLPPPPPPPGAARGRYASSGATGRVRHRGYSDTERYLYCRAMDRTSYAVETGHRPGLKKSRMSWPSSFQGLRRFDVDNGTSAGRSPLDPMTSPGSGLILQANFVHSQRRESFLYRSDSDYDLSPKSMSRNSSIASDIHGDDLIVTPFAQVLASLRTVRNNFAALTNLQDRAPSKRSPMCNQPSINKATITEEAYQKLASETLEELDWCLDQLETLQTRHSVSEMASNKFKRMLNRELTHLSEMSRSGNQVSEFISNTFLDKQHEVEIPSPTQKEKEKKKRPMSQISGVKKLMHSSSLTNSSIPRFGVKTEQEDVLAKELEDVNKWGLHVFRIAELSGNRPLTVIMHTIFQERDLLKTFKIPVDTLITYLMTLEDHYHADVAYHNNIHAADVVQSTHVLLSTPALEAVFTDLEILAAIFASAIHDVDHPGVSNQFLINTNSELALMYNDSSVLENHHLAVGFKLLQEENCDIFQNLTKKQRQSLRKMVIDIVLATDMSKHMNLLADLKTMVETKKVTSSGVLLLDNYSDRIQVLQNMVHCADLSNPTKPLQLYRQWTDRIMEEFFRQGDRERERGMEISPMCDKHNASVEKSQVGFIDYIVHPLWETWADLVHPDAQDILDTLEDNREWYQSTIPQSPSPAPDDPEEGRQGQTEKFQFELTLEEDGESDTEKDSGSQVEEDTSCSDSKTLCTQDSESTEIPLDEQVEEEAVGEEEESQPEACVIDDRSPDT

[8] = molecular target: T4, 3',5'-cyclic-AMP phosphodiesterase 4D; experiment: Inhibition of PDE4D2 at 100 uM by rapid fluorescence based assay

T1 sequence (Q01959 whole entry): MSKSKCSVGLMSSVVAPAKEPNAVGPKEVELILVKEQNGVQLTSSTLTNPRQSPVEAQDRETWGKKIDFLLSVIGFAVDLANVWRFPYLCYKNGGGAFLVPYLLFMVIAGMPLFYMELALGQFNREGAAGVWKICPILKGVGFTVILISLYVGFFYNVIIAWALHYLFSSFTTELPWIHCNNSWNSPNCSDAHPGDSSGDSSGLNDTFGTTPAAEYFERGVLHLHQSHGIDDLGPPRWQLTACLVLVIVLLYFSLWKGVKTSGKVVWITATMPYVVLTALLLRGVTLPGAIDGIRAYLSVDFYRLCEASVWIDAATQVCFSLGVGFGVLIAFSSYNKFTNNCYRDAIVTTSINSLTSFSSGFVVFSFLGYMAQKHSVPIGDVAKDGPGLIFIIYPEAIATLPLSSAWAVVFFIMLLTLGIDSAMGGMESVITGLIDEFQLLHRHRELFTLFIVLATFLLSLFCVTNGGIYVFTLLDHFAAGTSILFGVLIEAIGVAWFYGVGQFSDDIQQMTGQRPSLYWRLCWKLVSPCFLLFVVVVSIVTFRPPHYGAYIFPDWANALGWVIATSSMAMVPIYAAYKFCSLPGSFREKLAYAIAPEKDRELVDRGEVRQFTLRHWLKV

Compound	Ki [1]	IC50 [2]	Ki [3]	Ki [4]	IC50 [5]	IC50 [6]	IC50 [7]	Activity [8]
COc1ccc(C2=NN(CCCCCNCC[C@@H](Oc3ccc(C(F)(F)F)cc3)c3ccccc3)C(=O)C3CC=CCC23)cc1OC (stereo not given in full)	4.49 µM	0.173 µM	0.065 µM	6.57 µM	> 7 µM	6.81 µM	0.106 µM	–
COc1ccc(C2=NNC(=O)C3CC=CCC23)cc1OC (stereo not given)	> 100 µM	> 100 µM	> 100 µM	> 100 µM	> 100 µM	> 100 µM	0.213 µM	–
NCC[C@H](Oc1ccc(C(F)(F)F)cc1)c1ccccc1 [SEPROXETINE]	4.54 µM	–	–	6.19 µM	6.49 µM	2.81 µM	≥ 100 µM	–
COc1ccc(C2=NN(CCCCCNCC[C@H](Oc3ccc(C(F)(F)F)cc3)c3ccccc3)C(=O)C3CC=CCC23)cc1OC (stereo not given in full)	2.72 µM	0.042 µM	0.3 µM	4.6 µM	5.98 µM	6.55 µM	0.253 µM	–

Results, then the compound that gave them:

Ki [1]	IC50 [2]	Ki [3]	Ki [4]	IC50 [5]	IC50 [6]	IC50 [7]	Activity [8]	Compound
3.66 µM	–	–	7.49 µM	7.13 µM	2 µM	–	inactive	NCC[C@@H](Oc1ccc(C(F)(F)F)cc1)c1ccccc1
> 100 µM	> 100 µM	> 100 µM	–	> 100 µM	–	–	–	COc1ccc(C2=NN(CCCCCBr)C(=O)C3CC=CCC23)cc1OC (stereo not given)
